Measurements taken from patent US11357779B2 (G1 Therapeutics, Inc., priority 2018, dated 2022).
Read-outs that look alike come from different tables or passages of the source.

Experiment: Plasma concentration versus time of Compound I and metabolite Compound III in patients dosed QD or BID with Form B of Compound II plus fulvestrant
Format: in vivo, human
Details: human, plasma, oral; for concentration at 8 h: Day 1, 8.0 h; for concentration at 10 h: Day 1, 10.0 h; for concentration at 12 h: Day 1, 12.0 h; for concentration at 8 day: Day 8; for concentration at 15 day: Day 15; for concentration at 22 day: Day 22
Excerpt: Patients were enrolled into 1 of 2 parallel, independently operating, dose-escalation dosing cohorts with Form B of Compound II administered continuously either once daily (QD) or twice daily (BID) with food with fixed-dose fulvestrant (intramuscularly every 14 days for the first three injections and then every 28 days). Pre- or perimenopausal patients also received goserelin for the duration of study treatment. A […] agonist was started at least 28 days before the first dose of Form B, and those patients who were taking another LHRH agonist were switched to goserelin on Day 1. Patients were split into […] cohorts providing once a day (QD) dosing of 200 mg, 300 mg, 400 mg, 500 mg, or 650 mg of Form B, or twice a day (BID) dosing of 100 mg, 150 mg, or 200 mg of Form B. The second dose in BID cohorts was not administered in the evening until at least 12 hours after the initial morning dose of Form B. The dosing cohorts for Form B of Compound II are provided in Table 1.
Blood samples were collected at the following time points relative to the morning dose of Form B at Day 1 and at Day 29: pre-dose (0 hour) and 1, 2, 3, 4, 6, 8, 10, 12 (prior to the evening dose in the BID cohorts), and 24 (prior to the next day's morning dose) hours after dosing. A 5-minute time window was allowed for samples collected between the predose and 3 hours after Form B dosing. A 15-minute window was allowed for samples collected between 4 to 12 hours after Form B dosing. A 1-hour window was allowed for the sample collected 24 hours after Form B dosing. Blood samples for Compound I PK trough levels were collected pre-dose at Day 8, Day 15, and Day 22 prior to the morning administration of Compound I. Plasma concentrations of Compound I and its metabolite, Compound III, were measured using validated methods.
Analysis of plasma concentration versus time data for calculation of standard pharmacokinetic (PK) parameters following oral administration was conducted using Phoenix WinNonlin version 6.3 using actual blood sampling times.

[1] = 100 mg, 100 mg BID of Form B, Mean, read-out: Compound III Concentration
[2] = 100 mg, 100 mg BID of Form B, Median, read-out: Compound III Concentration
[3] = 100 mg, Cohort 6, 100 mg BID of Form B, read-out: Trough Compound III Concentration, Median
[4] = 100 mg, Cohort 6, 100 mg BID of Form B, read-out: Trough Compound III Concentration, Min
[5] = 400 mg, Cohort 3, 400 mg QD of Form B, read-out: Trough Compound III Concentration, Max
[6] = 400 mg, Cohort 3, 400 mg QD of Form B, read-out: Trough Compound III Concentration, Mean
[7] = 400 mg, Cohort 3, 400 mg QD of Form B, read-out: Trough Compound III Concentration, Median
[8] = 500 mg, Cohort 4, 500 mg QD of Form B, read-out: Trough Compound III Concentration, Max
[9] = 500 mg, Cohort 4, 500 mg QD of Form B, read-out: Trough Compound III Concentration, Mean
[10] = 500 mg, Cohort 4, 500 mg QD of Form B, read-out: Trough Compound III Concentration, Median
[11] = 500 mg, Cohort 4, 500 mg QD of Form B, read-out: Trough Compound III Concentration, Min

O=C1NCC2(CCCCC2)n2c1cc1cnc(Nc3ccc(N4CCNCC4)cn3)nc12 [Compound III, 2′-((5-(piperazin-1-yl)pyridin-2-yl)amino)-7′,8′-dihydro-6′H-spiro[cyclohexane-1,9′-pyrazino[1′,2′:1,5]pyrrolo[2,3-d]pyrimidin]-6′-one]
concentration at 0 h (100 mg, 100 mg BID of Form B, Day 1, 0.0 h, Mean, read-out: Compound III Concentration): 0 ng/mL | concentration at 0 h (100 mg, 100 mg BID of Form B, Day 1, 0.0 h, Median, read-out: Compound III Concentration): 0 ng/mL | concentration at 1 h (100 mg, 100 mg BID of Form B, Day 1, 1.0 h, Mean, read-out: Compound III Concentration): 0.248 ng/mL | concentration at 1 h (100 mg, 100 mg BID of Form B, Day 1, 1.0 h, Median, read-out: Compound III Concentration): 0 ng/mL | concentration at 2 h (100 mg, 100 mg BID of Form B, Day 1, 2.0 h, Mean, read-out: Compound III Concentration): 1.04 ng/mL | concentration at 2 h (100 mg, 100 mg BID of Form B, Day 1, 2.0 h, Median, read-out: Compound III Concentration): 1 ng/mL | concentration at 3 h (100 mg, 100 mg BID of Form B, Day 1, 3.0 h, Mean, read-out: Compound III Concentration): 1.41 ng/mL | concentration at 3 h (100 mg, 100 mg BID of Form B, Day 1, 3.0 h, Median, read-out: Compound III Concentration): 1.42 ng/mL | concentration at 4 h (100 mg, 100 mg BID of Form B, Day 1, 4.0 h, Mean, read-out: Compound III Concentration): 1.25 ng/mL | concentration at 4 h (100 mg, 100 mg BID of Form B, Day 1, 4.0 h, Median, read-out: Compound III Concentration): 1.13 ng/mL | concentration at 6 h (100 mg, 100 mg BID of Form B, Day 1, 6.0 h, Mean, read-out: Compound III Concentration): 0.471 ng/mL | concentration at 6 h (100 mg, 100 mg BID of Form B, Day 1, 6.0 h, Median, read-out: Compound III Concentration): 0.382 ng/mL | concentration at 8 h [1]: 0.219 ng/mL | concentration at 8 h [2]: 0 ng/mL | concentration at 10 h [1]: 0 ng/mL | concentration at 10 h [2]: 0 ng/mL | concentration at 12 h [1]: 0.0917 ng/mL | concentration at 12 h [2]: 0 ng/mL | concentration at 8 day [3]: 0.481 ng/mL | concentration at 8 day [4]: 0 ng/mL | concentration at 15 day [3]: 0.895 ng/mL | concentration at 15 day [4]: 0 ng/mL | concentration at 22 day [3]: 0.403 ng/mL | concentration at 22 day [4]: 0 ng/mL | concentration at 0 h (150 mg, 150 mg BID of Form B, Day 1, 0.0 h, Median, read-out: Compound III Concentration): 0 ng/mL | concentration at 1 h (150 mg, 150 mg BID of Form B, Day 1, 1.0 h, Median, read-out: Compound III Concentration): 1.52 ng/mL | concentration at 8 day [5]: 0.702 ng/mL | concentration at 8 day [6]: 0.406 ng/mL | concentration at 8 day [7]: 0.515 ng/mL | concentration at 15 day [5]: 0.665 ng/mL | concentration at 15 day [6]: 0.435 ng/mL | concentration at 15 day [7]: 0.64 ng/mL | concentration at 22 day [5]: 0.935 ng/mL | concentration at 22 day [6]: 0.729 ng/mL | concentration at 22 day [7]: 0.736 ng/mL | concentration at 22 day (400 mg, Cohort 3, 400 mg QD of Form B, read-out: Trough Compound III Concentration, Min): 0.515 ng/mL | concentration at 8 day [8]: 1.98 ng/mL | concentration at 8 day [9]: 1.71 ng/mL | concentration at 8 day [10]: 1.62 ng/mL | concentration at 8 day [11]: 1.53 ng/mL | concentration at 15 day [8]: 2.66 ng/mL | concentration at 15 day [9]: 2.07 ng/mL | concentration at 15 day [10]: 2.15 ng/mL | concentration at 15 day [11]: 1.33 ng/mL | concentration at 22 day [8]: 2.11 ng/mL | concentration at 22 day [9]: 1.73 ng/mL | concentration at 22 day [10]: 1.58 ng/mL | concentration at 22 day [11]: 1.5 ng/mL | concentration at 0 h (500 mg, Cohort 4, 500 mg QD of Form B, Day 29, 0.0 h, read-out: Compound III Concentration, Mean): 1.76 ng/mL | concentration at 0 h (500 mg, Cohort 4, 500 mg QD of Form B, Day 29, 0.0 h, read-out: Compound III Concentration, Min): 1.41 ng/mL | concentration at 1 h (500 mg, Cohort 4, 500 mg QD of Form B, Day 29, 1.0 h, read-out: Compound III Concentration, Mean): 2.98 ng/mL | concentration at 1 h (500 mg, Cohort 4, 500 mg QD of Form B, Day 29, 1.0 h, read-out: Compound III Concentration, Min): 2.06 ng/mL | concentration at 2 h (500 mg, Cohort 4, 500 mg QD of Form B, Day 29, 2.0 h, read-out: Compound III Concentration, Mean): 4.39 ng/mL | concentration at 2 h (500 mg, Cohort 4, 500 mg QD of Form B, Day 29, 2.0 h, read-out: Compound III Concentration, Min): 3.61 ng/mL | concentration at 3 h (500 mg, Cohort 4, 500 mg QD of Form B, Day 29, 3.0 h, read-out: Compound III Concentration, Mean): 5.9 ng/mL | concentration at 3 h (500 mg, Cohort 4, 500 mg QD of Form B, Day 29, 3.0 h, read-out: Compound III Concentration, Min): 4.66 ng/mL | concentration at 4 h (500 mg, Cohort 4, 500 mg QD of Form B, Day 29, 4.0 h, read-out: Compound III Concentration, Mean): 5.77 ng/mL | concentration at 4 h (500 mg, Cohort 4, 500 mg QD of Form B, Day 29, 4.0 h, read-out: Compound III Concentration, Min): 4.04 ng/mL | concentration at 6 h (500 mg, Cohort 4, 500 mg QD of Form B, Day 29, 6.0 h, read-out: Compound III Concentration, Mean): 4.18 ng/mL | concentration at 6 h (500 mg, Cohort 4, 500 mg QD of Form B, Day 29, 6.0 h, read-out: Compound III Concentration, Min): 3.55 ng/mL
